Our source for the AC50, IC50 and EC50 values is ChEMBL document CHEMBL1201862, “PubChem BioAssay data set” (2004).

The source made the active and inactive calls.

Experiment [1] in a line: viability loss of HMLE_sh_eGFP cells – cell-based, luminescence, counter-screen for HMLE_sh_ECad selective toxicity project, dose response (AID 463074).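 Also: HMLE human mammary epithelial cells expressing control shRNA against eGFP.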 The experiment is classed as functional, Homo sapiens. Background: The purpose of a counterscreen is to sort out artefacts and off-target activity.
Experiment [2] is described as follows: Luminescence Cell-Based Dose Retest to Confirm Inhibitors of Cancer Stem Cells. [Related pubchem assays (depositor defined):AID2717, AID2721]. The experiment is classed as functional. The note with it: Homo sapiens.
The test system of another experiment is Escherichia coli. Put plainly: microbe, parasite or virus in culture.
Experiment [3] has as its system MDCK. The experiment can be described thus: antiviral activity against H1N1 influenza, dose response, cell-based, strain KY136 (AID 540257). The experiment is classed as functional. The note with it: Canis lupus familiaris.
In experiment [4] the test system is MDCK. The experiment can be described thus: antiviral activity against H1N1 influenza, dose response, cell-based, strain KY180 (AID 540254). In kind it is functional. The note with it: Canis lupus familiaris.
A further experiment addresses Nonstructural protein 1 (Influenza A virus, UniProt Q194T2). In kind it is functional, Influenza A virus (A/California/07/2009(H1N1)).
Experiment [5] addresses T1, RNA-binding protein pos-1 (Caenorhabditis elegans, UniProt G5EF15).
T1 sequence (G5EF15 whole entry): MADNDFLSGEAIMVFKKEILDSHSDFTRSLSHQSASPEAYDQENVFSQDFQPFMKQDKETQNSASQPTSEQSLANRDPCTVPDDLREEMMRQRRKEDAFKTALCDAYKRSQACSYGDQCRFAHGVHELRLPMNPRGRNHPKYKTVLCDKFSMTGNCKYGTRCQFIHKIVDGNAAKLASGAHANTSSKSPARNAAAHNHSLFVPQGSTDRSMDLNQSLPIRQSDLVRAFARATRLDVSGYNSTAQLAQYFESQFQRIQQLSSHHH
Put plainly: disruptors of C. elegans POS-1 RNA interaction – biochemical, fluorescence polarization, dose response (AID 1964).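 Also: purified POS-1 fused to maltose binding protein made in E. coli; potency of compounds blocking POS-1 binding to fluorescent RNA.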

In the next experiment the target is T2, Streptokinase A (Streptococcus pyogenes serotype M1, UniProt P10520).
T2 sequence (P10520 whole entry): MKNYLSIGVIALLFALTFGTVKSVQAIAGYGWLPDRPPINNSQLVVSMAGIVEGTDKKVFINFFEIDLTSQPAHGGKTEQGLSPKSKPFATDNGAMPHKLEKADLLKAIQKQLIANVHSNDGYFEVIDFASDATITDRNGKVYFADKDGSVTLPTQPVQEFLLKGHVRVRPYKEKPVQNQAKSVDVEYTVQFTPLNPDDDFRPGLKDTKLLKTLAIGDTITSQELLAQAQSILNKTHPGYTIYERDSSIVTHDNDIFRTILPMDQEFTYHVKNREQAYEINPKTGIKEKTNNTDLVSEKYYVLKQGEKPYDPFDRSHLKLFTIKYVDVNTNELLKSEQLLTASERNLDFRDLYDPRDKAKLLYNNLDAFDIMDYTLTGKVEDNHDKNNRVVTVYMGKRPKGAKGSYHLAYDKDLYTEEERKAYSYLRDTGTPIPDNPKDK
Put plainly: viability-normalized secreted streptokinase activity reduction – plasminogen activation absorbance, OD405, dose response (AID 1914).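 Also: secreted streptokinase activity via plasminogen activation per viability signal from cell pellet.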 The experiment is classed as functional, Streptococcus pyogenes M1 GAS.

Experiment [6] deals with Photoreceptor-specific nuclear receptor (Homo sapiens, UniProt Q9Y5X4). Put plainly: ligands suppressing NR2E3 nuclear receptor activity – biochemical, TR-FRET, dose response (AID 463256). In kind it is functional. A general note: TR-FRET usually uses a lanthanide donor and a delayed reading to cut background.
Chain of Photoreceptor-specific nuclear receptor (Q9Y5X4 whole entry): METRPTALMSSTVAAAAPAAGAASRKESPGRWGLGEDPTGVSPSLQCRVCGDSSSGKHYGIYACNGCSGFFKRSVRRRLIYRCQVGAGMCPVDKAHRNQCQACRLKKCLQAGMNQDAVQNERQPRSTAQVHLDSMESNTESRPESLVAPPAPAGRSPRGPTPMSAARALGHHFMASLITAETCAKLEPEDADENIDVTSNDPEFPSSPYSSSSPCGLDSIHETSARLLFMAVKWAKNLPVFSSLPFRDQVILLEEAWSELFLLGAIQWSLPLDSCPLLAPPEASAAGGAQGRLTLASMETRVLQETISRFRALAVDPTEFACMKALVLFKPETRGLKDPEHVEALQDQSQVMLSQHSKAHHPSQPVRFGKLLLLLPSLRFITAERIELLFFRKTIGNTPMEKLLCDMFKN
Experiment [7] deals with Peroxisome proliferator-activated receptor gamma/Nuclear receptor corepressor 2 (Homo sapiens, UniProt P37231+Q9Y618). The experiment can be described thus: Counterscreen for NR2E3 inverse agonists: TR-FRET-based biochemical high throughput dose response assay to identify inverse agonists of the interaction between peroxisome proliferator-activated receptor gamma (PPARg) and nuclear receptor co-repressor 2 (NCOR2). The experiment is classed as functional.

Another experiment deals with Keap1/Nrf2 (Homo sapiens, UniProt Q14145). The experiment can be described thus: disruptors of Keap1 binding to Nrf2 peptide – biochemical, fluorescence polarization, cherry-picked samples, dose response (AID 588683). (Fluorescence polarisation rises when a labelled molecule tumbles more slowly, as on binding a larger partner.)
For experiment [8], the target named is T3, Zinc finger protein mex-5 (Caenorhabditis elegans, UniProt Q9XUB2).
T3 sequence (Q9XUB2 whole entry): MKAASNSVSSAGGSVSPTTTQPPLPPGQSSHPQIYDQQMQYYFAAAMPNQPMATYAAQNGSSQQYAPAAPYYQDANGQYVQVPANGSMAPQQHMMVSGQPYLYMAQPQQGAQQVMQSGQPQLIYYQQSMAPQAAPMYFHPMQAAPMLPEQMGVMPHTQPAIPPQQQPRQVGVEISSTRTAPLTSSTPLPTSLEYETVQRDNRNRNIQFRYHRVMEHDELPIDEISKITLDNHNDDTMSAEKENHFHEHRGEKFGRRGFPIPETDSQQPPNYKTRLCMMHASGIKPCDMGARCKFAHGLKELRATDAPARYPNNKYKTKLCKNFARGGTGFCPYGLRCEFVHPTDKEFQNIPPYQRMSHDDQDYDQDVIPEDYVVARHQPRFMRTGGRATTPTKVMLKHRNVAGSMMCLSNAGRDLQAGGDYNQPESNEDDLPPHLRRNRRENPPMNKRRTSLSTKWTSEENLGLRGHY
The experiment can be described thus: potency of MEX-5 RNA-binding blockers – biochemical, C. elegans, fluorescence polarization, dose response (AID 1960).

Experiment [9] has as its target Luciferin 4-monooxygenase (Photinus pyralis, UniProt P08659). Put plainly: inhibition of purified Photinus pyralis luciferase – biochemical, luminescence, dose response (AID 1891).
In experiment [10] the target is T4, Heat shock factor protein 1 (Mus musculus, UniProt P38532).
T4 sequence (P38532 whole entry): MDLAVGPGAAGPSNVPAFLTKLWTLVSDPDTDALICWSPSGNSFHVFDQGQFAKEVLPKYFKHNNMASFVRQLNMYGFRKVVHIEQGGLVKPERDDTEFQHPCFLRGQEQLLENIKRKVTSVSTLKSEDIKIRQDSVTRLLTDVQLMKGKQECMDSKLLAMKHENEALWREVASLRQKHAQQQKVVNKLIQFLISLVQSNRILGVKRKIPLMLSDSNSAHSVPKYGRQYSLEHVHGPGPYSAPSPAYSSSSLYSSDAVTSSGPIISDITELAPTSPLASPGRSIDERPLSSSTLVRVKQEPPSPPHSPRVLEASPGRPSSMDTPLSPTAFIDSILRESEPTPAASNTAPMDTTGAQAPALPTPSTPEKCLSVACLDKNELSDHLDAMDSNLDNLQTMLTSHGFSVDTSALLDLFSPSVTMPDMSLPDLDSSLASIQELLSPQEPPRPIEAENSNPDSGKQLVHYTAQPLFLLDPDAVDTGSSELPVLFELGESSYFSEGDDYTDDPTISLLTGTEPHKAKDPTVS
The experiment can be described thus: enhancement of HSF1-driven luciferase signal – cell-based, NIH3T3, luminescence, dose retest, confirmation (AID 435004).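 Also: stress induced by proteasome inhibitor MG132 added 30 min after compound; luciferase reporter driven by HSF1 response element in NIH3T3 cells; actives raise luminescence as potentiators of the MG132 stress response.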 The experiment is classed as functional.

The next experiment addresses ORF 73 (Human herpesvirus 8, UniProt O40947). The experiment can be described thus: KSHV LANA DNA-binding disruption – biochemical, fluorescence polarization, cherry-picked samples, dose response (AID 504725).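 Also: fluorescence polarization of a labeled DNA duplex reporting LANA DNA binding; potency is for inhibitors that block LANA binding to the DNA.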 Details: species or system Human gammaherpesvirus 8.
Experiment [11] can be described thus: restored growth of temperature-sensitive Burl-1 yeast – whole organism, S. cerevisiae, Burl-1 ts mutant, luminescence, counter-screen for SUMOylation pathway inhibitor project, dose response (AID 463199). In kind it is functional.
Experiment [12] concerns the target T5, COUP transcription factor 2 (Homo sapiens, UniProt P24468).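 Also: HEK293 cells transiently cotransfected with COUP-TFII expression vector and reporter; luciferase reporter luminescence driven by COUP-TFII from the pX2-168 reporter plasmid.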
T5 sequence (P24468 whole entry): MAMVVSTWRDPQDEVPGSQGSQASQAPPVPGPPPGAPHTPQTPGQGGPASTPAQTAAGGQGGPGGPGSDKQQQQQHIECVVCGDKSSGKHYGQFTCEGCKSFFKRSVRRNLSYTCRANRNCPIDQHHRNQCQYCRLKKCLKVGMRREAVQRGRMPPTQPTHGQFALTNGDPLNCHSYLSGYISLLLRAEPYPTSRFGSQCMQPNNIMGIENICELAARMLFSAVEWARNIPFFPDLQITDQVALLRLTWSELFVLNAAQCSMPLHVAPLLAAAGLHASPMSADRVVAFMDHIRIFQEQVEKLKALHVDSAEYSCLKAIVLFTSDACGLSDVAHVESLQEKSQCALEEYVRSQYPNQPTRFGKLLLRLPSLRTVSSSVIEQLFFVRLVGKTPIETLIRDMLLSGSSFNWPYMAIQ
Put plainly: Luminescence-based cell-based high throughput dose response assay to identify inhibitors of COUP-TFII (NR2F2). The experiment is classed as functional.

In experiment [13] the test system is HEK293. The experiment can be described thus: NOD2 signaling inhibitors in MDP-stimulated cells, cell-based, uHTS, luminescence (AID 2001). To be noted: Homo sapiens. In kind it is functional.
The target in experiment [14] is Nucleotide-binding oligomerization domain-containing protein 2 (Homo sapiens, UniProt Q9HC29). The experiment can be described thus: inhibition of NOD2-driven NF-kB reporter – cell-based, luminescence, uHTS, HEK293 (AID 1566). The experiment is classed as functional.
Chain of Nucleotide-binding oligomerization domain-containing protein 2 (Q9HC29 whole entry, the tested form may be a part): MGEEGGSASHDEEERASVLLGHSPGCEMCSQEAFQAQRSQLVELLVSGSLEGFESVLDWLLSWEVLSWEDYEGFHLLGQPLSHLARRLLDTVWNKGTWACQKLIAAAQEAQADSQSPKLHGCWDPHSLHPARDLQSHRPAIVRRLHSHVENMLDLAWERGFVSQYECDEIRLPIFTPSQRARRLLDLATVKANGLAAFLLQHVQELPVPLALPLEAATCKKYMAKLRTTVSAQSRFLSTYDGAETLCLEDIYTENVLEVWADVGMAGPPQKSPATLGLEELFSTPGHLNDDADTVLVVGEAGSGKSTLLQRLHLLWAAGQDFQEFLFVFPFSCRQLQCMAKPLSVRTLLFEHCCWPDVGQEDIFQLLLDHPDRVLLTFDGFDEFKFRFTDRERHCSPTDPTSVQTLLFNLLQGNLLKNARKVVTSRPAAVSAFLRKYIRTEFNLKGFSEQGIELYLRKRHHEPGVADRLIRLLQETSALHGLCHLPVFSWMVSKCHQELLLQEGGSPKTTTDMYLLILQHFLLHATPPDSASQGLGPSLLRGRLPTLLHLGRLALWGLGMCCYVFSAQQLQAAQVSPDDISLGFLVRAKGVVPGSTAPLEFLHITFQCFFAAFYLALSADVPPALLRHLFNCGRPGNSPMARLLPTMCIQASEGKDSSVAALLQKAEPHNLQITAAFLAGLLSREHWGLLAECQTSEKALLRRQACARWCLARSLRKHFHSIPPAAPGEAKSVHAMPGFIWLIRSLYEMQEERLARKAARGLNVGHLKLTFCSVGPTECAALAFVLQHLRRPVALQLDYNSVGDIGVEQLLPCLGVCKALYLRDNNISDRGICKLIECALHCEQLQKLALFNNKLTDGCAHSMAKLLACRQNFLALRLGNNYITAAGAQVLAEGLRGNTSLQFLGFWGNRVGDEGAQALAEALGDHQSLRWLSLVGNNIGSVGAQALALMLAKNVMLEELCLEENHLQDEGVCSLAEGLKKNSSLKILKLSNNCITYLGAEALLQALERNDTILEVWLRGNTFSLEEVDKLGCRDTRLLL
The next experiment deals with INS1. The experiment can be described thus: INS-1E survival protection against cytokine death – cell-based, luminescence, retest, dose response (AID 449756).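 Also: cell death triggered by IL-1 beta plus TNF-alpha plus IFN-gamma mixture; protective hits raise ATP signal compared with cytokine alone wells.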 The note with it: Rattus norvegicus. The experiment is classed as functional.
Experiment [15] deals with HEK293. Put plainly: cells. The experiment is classed as functional, cell-based. The note with it: Homo sapiens.
In experiment [16] the test system is HEK293. The experiment can be described thus: cells. In kind it is functional, cell-based. The note with it: Homo sapiens. This is another data set of the same source.
For another experiment, the system named is Jurkat. Put plainly: blockers of NF-kB activation in T cells – Jurkat, luciferase reporter, luminescence, B- and T-cell, dose response (AID 489004).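 Also: NF-kB luciferase reporter Jurkat cells stimulated with PMA plus ionomycin.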 To be noted: Homo sapiens. In kind it is functional, cell-based.
Experiment [17] concerns HEK293. The experiment can be described thus: inhibition of NOD1-driven NF-kB reporter – cell-based, luminescence, uHTS, primary screen (AID 1578). In kind it is functional. To be noted: Homo sapiens.
Experiment [18] can be described thus: HEK-293T viability loss, compound-treated – cell-based, uHTS hits, cytotoxicity control for B/T-cell NF-kB inhibitor project, dose response (AID 489019).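 Also: IC50 reflects cytotoxicity as loss of cell viability.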 The experiment is classed as functional.
Experiment [19] concerns HEK293. Put plainly: cells. To be noted: Homo sapiens. In kind it is functional, cell-based. This is another data set of the same source.
For experiment [20], the target named is Dual specificity protein phosphatase 6 (Rattus norvegicus, UniProt Q64346). In kind it is functional.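 Also: confirmatory in vitro dose-response testing of MKP-3 inhibition; recombinant His-tagged MKP-3 made in E. coli BL21 with OMFP substrate.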
Chain of Dual specificity protein phosphatase 6 (Q64346 whole entry): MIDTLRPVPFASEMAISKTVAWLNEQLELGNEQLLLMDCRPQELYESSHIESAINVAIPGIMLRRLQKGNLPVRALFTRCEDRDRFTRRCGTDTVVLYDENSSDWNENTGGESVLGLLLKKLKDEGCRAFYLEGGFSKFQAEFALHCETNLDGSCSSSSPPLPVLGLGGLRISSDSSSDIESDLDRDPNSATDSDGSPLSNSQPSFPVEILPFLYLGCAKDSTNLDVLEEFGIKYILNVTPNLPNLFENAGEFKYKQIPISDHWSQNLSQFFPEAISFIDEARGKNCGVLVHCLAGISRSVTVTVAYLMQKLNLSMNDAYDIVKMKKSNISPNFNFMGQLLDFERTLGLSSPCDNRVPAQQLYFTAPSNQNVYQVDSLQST
Experiment [21] has as its target Dual specificity protein phosphatase 3 (Homo sapiens, UniProt P51452). The experiment can be described thus: SAR VHR1 Fluorescent Assay for In Vitro dose response studies Set 2. [Related pubchem assays (depositor defined):AID1654, AID1661, AID1878]. In kind it is functional.
Experiment [22] has as its target UDP-galactopyranose mutase (Mycobacterium tuberculosis, UniProt P9WIQ1). Put plainly: Inhibitors of Mycobacterium tuberculosis UDP-galactopyranose mutase (UGM) enzyme Measured in Biochemical System Using Plate Reader - 2105-02_Inhibitor_Dose_CherryPick_Activity. [Related pubchem assays (depositor defined):AID504439].

Chain of Dual specificity protein phosphatase 3 (P51452 whole entry): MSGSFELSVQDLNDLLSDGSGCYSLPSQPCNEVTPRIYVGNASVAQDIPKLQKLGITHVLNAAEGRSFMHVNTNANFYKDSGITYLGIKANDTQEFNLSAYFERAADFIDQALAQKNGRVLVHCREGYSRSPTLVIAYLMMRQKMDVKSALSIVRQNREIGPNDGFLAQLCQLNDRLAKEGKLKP
Chain of UDP-galactopyranose mutase (P9WIQ1 whole entry): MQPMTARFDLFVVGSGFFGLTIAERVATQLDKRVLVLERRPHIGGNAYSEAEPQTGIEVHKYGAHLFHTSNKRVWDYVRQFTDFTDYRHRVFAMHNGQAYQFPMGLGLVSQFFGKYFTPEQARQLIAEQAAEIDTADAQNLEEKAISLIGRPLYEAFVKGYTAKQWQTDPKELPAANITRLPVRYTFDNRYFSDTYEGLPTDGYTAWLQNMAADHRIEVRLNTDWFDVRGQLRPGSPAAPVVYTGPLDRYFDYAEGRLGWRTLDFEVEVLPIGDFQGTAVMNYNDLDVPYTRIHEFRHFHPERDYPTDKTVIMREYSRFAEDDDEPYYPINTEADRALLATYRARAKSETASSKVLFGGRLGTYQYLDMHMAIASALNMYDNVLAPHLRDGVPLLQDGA
Chain of ORF 73 (O40947 whole entry): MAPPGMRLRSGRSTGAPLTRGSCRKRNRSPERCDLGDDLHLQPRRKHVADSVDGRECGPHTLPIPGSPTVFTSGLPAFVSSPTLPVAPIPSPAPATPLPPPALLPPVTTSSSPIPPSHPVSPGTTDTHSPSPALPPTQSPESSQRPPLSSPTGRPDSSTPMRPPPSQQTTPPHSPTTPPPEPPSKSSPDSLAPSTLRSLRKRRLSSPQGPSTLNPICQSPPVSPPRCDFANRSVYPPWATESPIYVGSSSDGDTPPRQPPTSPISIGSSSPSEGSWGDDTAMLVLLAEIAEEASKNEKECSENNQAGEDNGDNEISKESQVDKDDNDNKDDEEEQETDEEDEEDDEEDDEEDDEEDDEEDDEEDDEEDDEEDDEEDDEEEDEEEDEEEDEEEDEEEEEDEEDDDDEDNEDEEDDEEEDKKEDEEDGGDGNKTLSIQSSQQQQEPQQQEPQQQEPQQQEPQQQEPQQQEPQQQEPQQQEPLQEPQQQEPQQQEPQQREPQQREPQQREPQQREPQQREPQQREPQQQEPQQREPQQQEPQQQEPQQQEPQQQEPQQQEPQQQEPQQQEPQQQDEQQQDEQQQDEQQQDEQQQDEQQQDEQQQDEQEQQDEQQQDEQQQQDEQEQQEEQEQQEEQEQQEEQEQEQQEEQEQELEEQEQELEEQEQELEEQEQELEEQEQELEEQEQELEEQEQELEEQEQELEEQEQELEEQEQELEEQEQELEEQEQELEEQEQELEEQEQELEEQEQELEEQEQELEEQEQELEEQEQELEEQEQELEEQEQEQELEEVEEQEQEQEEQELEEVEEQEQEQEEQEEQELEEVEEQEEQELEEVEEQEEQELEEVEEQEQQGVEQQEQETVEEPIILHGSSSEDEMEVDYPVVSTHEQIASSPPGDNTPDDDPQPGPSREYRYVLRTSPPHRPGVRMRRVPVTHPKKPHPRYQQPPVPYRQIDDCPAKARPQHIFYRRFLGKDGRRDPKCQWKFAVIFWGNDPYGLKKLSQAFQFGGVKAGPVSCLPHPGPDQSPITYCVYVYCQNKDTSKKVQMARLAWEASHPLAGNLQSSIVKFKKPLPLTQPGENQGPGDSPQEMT
Chain of Luciferin 4-monooxygenase (P08659 whole entry): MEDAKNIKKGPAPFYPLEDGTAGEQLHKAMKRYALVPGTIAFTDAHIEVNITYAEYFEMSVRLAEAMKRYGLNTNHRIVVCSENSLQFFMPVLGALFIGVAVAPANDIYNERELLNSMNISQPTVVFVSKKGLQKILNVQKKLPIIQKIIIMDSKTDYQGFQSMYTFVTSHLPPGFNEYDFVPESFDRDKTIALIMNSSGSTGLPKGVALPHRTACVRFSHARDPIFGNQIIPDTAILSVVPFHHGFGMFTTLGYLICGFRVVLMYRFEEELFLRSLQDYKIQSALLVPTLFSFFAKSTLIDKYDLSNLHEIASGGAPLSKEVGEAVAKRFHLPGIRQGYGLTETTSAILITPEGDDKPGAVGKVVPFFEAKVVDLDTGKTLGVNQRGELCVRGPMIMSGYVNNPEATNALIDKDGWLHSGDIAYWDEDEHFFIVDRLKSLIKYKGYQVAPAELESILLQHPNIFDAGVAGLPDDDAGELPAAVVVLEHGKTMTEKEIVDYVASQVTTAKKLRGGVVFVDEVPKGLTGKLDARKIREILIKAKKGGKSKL
Chain of Nonstructural protein 1 (Q194T2 whole entry): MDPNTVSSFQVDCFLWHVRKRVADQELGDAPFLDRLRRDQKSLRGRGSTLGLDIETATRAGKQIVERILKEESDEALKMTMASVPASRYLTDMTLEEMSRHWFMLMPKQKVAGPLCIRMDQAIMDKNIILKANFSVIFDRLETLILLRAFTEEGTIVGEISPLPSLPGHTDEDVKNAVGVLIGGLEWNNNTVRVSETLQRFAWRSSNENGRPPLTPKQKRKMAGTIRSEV

The term AC50 denotes the concentration giving half of the maximal activity seen. Regarding `COc1cc2c(cc1NC(=O)c1cccc([N+](=O)[O-])c1C)oc1ccccc12`, the AC50 in [1] was 41.4 µM (active); in [2], 2.65 µM (active).
As for `CC(C)c1cc(C(=O)NCc2ccco2)no1`, the AC50 in the experiment with Escherichia coli was 46.2 µM (active).
As a reminder, the IC50 is the concentration needed to halve the response being measured. With `CN(C)c1cccc2c(C=C(C#N)C#N)ccc(N(C)C)c12`, the IC50 in the experiment on MDCK [3] was > 100 µM (active); in the experiment with MDCK [4] it was 15.9 µM (active); on Nonstructural protein 1 it was 22.6 µM (active).
One may read the EC50 as the concentration at which the effect is half-maximal. For `O=c1[nH]c2c(s1)C=Nc1ccccc1N2`, the EC50 in experiment [5] is 2.6 µM (inconclusive); at Streptokinase A, > 150 µM (not active); in experiment [8], 1.23 µM (inconclusive); in experiment [9], > 112 µM (not active); in [10] it was > 260 µM (inactive). Moreover, the IC50 was 3.14 µM (active) in experiment [6] and 2.26 µM (active) in experiment [7]. Moreover, the AC50 on Keap1/Nrf2 was 9.53 µM (active); at ORF 73, 5.1 µM (active).
`Cc1ccc(C2C(C(=O)c3cccs3)=C(O)C(=O)N2c2ccc(S(N)(=O)=O)cc2)cc1` (stereo unspecified): in experiment [11], the AC50 was 48.5 µM (active).
As to `O=S(=O)(NCC1CCCO1)c1ccc(-c2ccc(S(=O)(=O)NCC3CCCO3)cc2)cc1` (stereo unspecified), the IC50 in experiment [12] is 2.02 µM (active); in the experiment on HEK293 [13], 9.07 µM (active); in the experiment with HEK293 [15] it was > 20 µM (inactive); in the experiment on HEK293 [16], 5.37 µM (active); with Jurkat, > 80 µM (inactive); in experiment [18], > 80 µM (inactive). Also, the IC50 in the experiment with HEK293 [19] was 19.9 µM (active). The EC50 in [14] is > 20 µM (inactive); in the experiment with HEK293 [17], 1.65 µM (active). Also, in the experiment on INS1, the AC50 was 3.25 µM (active).
Consider `NS(=O)(=O)c1cc(C(=O)NC2CCSc3ccccc32)c(Cl)cc1Cl` (stereo unspecified), for which the IC50 in [20] and in experiment [21] was > 100 µM (inactive) in each case.
Consider `CCOCCCn1/c(=N/C(=O)c2cccs2)c(C#N)cc2c(=O)n3ccccc3nc21`, for which the EC50 in [5] is 28.9 µM (active); in [8], 40 µM (inconclusive). For the same compound, the AC50 in experiment [22] is > 500 µM (inactive).
